# Results reported in patent US12178838B2, “Synthetic neuromodulatory peptides” (Lactocore, Inc., priority 2019, dated 2024).
# Like-named read-outs stand apart in the source and are kept apart here.
# Columns and labels:
# BALB/C mice [1] = experiment: Open Field test in mice; assay type: in vivo; conditions: Diazepam 0.75 mg/kg
# Protocol: (§1) After an adaptation period, the test substance was intraperitoneally injected into mice. Behavioral parameters were measured in 30 minutes after injection. The tests were administered as follows: day 1—the Open field test, day 3—the Elevated plus maze test, day 5—the Marble burying test, days 12-13—the Porsolt swim (two-day modification) test.
# In the Open field test, the installation is an arena with a diameter of 63 cm, illuminated by bright light (500 lux) (OpenScience, Russia). The following parameters were measured during 5-minute experiment: a total distance (cm), a time of motion (if the speed is more than 5 cm/s), an immobility (if the speed is less than 0.2 cm/sec), a mean and maximum velocity, and a number of episodes of motor activity and “freezing”. The same set of parameters, as well as latent period and time duration of stay, were recorded for the central sector of the arena. Defecations and rearing (animal raise upright on hind limbs) were assessed visually (File and Wardill (1975) Validity of head-dipping as a measure of exploration in a modified hole-board. Psychopharmacol., 44, 53-59). The test is designed to measure the level of motor and exploratory activity.
# (§2) All substances were injected intraperitoneally in a volume of 10 μl of solution per 1 gram of animal weight 30 minutes prior to behavioral testing.
# BALB/C mice [2] = experiment: Porsolt swim test (two-day modification) in mice; assay type: in vivo; conditions: ip; Diazepam 0.75 mg/kg
# Protocol: as §1
# In the Porsolt Swim test, two tests were conducted in two days. The installation is a transparent cylinder, 30 cm in height, 10 cm in diameter, filled with water (temperature about 21-23° C.) to the mark of 25 cm height. On the first day each animal was placed into the cylinder for 10 minutes. Behavioral parameters were not registered. On the second day, the animals were placed into the cylinder for 5 minutes. The following parameters were measured: duration of active (vigorous movements of all limbs) and passive (weak movements of hind limbs) swimming, as well as immobility (immobilization) (Porsolt et al. (1977) Behavioral despair in mice: a primary screening test for antidepressants. Arch Int Pharmacodyn Ther. 229(2):327-36). After each test, the mice were placed into a heated cell to dry.
# BALB/C mice [3] = experiment: Marble Burying test in mice; assay type: in vivo; conditions: ip; Diazepam 0.75 mg/kg; FQSE 5 mg/kg; 30 minutes
# Protocol: as §1
# In the marble burying test, the installation is a standard T3 cage (19 cm×29 cm×13 cm) filled with bedding material. The standard glass marbles (15 mm in diameter, weight 5.2 g, arbitrary color) were used for the test. Twenty marbles were evenly spaced on the surface in 4 rows, 5 pieces each. The animal was placed in the testing cage for 30 minutes. At the end of the period, after the animal was carefully removed, the number of marbles that were more than two-thirds covered with bedding material was counted.
# as §2
# [4] = target: FQSE (SEQ ID NO:10)-specific binding sites in the rat cortex; experiment: Radioligand analysis with [3H] FQSE on rat cortex membranes
# Protocol: After decapitation, the tissues were immediately frozen in liquid nitrogen and stored in a low-temperature refrigerator at −80° C. On the day of the experiment, brain tissue (cortex, about 300 mg) was homogenized in a Teflon-glass Potter homogenizer 1:25 W:V in the buffer (50 mM Tris-HCl, pH 7.4). The homogenate was centrifuged at 40,000 g for 20 min. The obtained precipitate was homogenized in a buffer (50 mM Tris-HCl; pH=7.4) and centrifuged again at 40,000 g for 20 min. A similar procedure was performed again. The precipitate was resuspended in 15 ml of the same buffer and used for the radioligand analysis.
# The incubation mixture (final volume 0.5 ml) contained 50 μl […]
# At the end of the incubation, the samples were filtered through Ge/C glass fiber filters (Whatman) previously moistened with 0.3% polyethyleneimine for 2 hours at room temperature. Each tube was washed twice with cold buffer, then the filters were washed twice with the same volume of buffer.
# The filters were air-dried and transferred to scintillation vials. Filters were poured with 5 ml of toluene-based scintillation liquid (4 g PPO, 0.2 g POPOP per liter of toluene).
# To construct the curves of the radioactive ligand's displacement each concentration of the test substance was taken in 3 replications. […]
# Sprague Dawley rats = experiment: Elevated Plus Maze in rats, intranasal FQSE; assay type: in vivo; conditions: FQSE 0.5 mg/kg i.n.; diazepam 2 mg/kg IP
# Protocol: The five doses of FQSE (SEQ ID NO:10) (0.01, 0.1, 0.5, 1 and 3 mg/kg, CS, Menlo Park, CA) were prepared fresh for each test day in sterile saline and administered intranasally (i.n.) 30 minutes prior to testing. Fifteen rats per group per peptide dose were tested with the exception that there were twenty rats in the vehicle (0) group. Each dose was administered in a randomized order across rats. Prior to dosing, the rats were lightly anesthetized (till loss of righting reflex) with isoflurane (2.5%, 0.5 L/min oxygen), placed in the recumbent position, then a thin plastic pipette (Fischer Scientific) inserted into the nares and peptide administered at a volume of 15-20 uL per nares. Individuals performing the behavioral tests were blind to drug treatment.
# Rats were first allowed to acclimate to the testing room for 30 minutes while in their home cage. During testing, a rat was placed on the maze which consists of two open arms (45-cm long×10-cm wide), two closed arms (45-cm long×10-cm wide×30-cm high), and a middle compartment (4-cm long×4-cm wide) forming the shape of a plus located 50-cm above the floor, for 5-min. The test session was digitally recorded for later analyses (Ethovision, XT12). All testing was conducted under red lighting. An experimenter observed the rat during testing through a specialized observation window built into the door of the behavioral testing room. […]
smiles,measurement,setting,value
CN1C(=O)CN=C(c2ccccc2)c2cc(Cl)ccc21 [Diazepam],total distance,"BALB/C mice [1]; ip 30 min before, FQSE 1 mg/kg",2542.2±179.77 cm
same,time the animals spent in the center,BALB/C mice [1]; ip,not significantly different
same,number of center entries,"BALB/C mice [1]; ip, FQSE 1 mg/kg",not significantly different
same,number of rearings,"BALB/C mice [1]; ip, FQSE 1 mg/kg",10.8±2.1
same,"tested parameters (duration of active and passive swimming, immobility time)",BALB/C mice [2],did not lead to the changes in any tested parameter
same,number of marbles buried,BALB/C mice [3],1.2±0.39
same,IC50,[4]; read-out: IC50 after different incubation times: 50 min,52 ± 0.3 µM
same,IC50,[4]; read-out: IC50 after different incubation times: 1 h,89 ± 0.3 µM
same,IC50,[4]; read-out: IC50 after different incubation times: 1 h 30 min,95 ± 0.2 µM
same,IC50,[4]; read-out: IC50 for the [3H]-FQSE binding sites in rat cortex membranes,~100 µM
same,percent time on the open arm,Sprague Dawley rats,10.8±1.11%
